Results on 30 compounds are retold here after patent publication US20170333591A9, “ABSORBENT ARTICLE COMPRISING MALODOR REDUCTION COMPOSITIONS” (The Procter & Gamble Company, priority 2014, published 2017).

The nature of the first data set: Log of liquid dish neat product liquid-air partition coefficient. The class given is physicochemical.
Settings: not given
As to `COc1ccc(C(C)=O)cc1` [Material 761], the “Comment Code: Log of liquid dish neat product liquid-air partition coefficient” value (“Comment Code: Log” for short) is reported as “K (Log of liquid dish neat product liquid-air partition coefficient greater than or equal to 7)”. The same measure, in the same setting: to `Cc1cc(O)cc(C)c1Cl` [Material 557] belongs “K (Log of liquid dish neat product liquid-air partition coefficient greater than or equal to 7)”; to `C[C@@H]1CC[C@H]2[C@@H]1[C@H]1[C@@H](CC[C@]2(C)O)C1(C)C` [Material 1140], “K (Log of liquid dish neat product liquid-air partition coefficient greater than or equal to 7)”. For the compound `C=CCOC(=O)COC1CCCCC1` [Material 918], the “Comment Code: Log” value was “K (Log of liquid dish neat product liquid-air partition coefficient greater than or equal to 7)”. Turning to `C=C[C@@](C)(O)CCC=C(C)C` [Material 1017], the “Comment Code: Log” value is reported as “K (Log of liquid dish neat product liquid-air partition coefficient greater than or equal to 7)”. On the same count and under the same terms, then `CCOc1cc(COC)ccc1O` [Material 115], with “K (Log of liquid dish neat product liquid-air partition coefficient greater than or equal to 7)”; and `O=Cc1ccc2c(c1)OCO2` [Material 287], with “K (Log of liquid dish neat product liquid-air partition coefficient greater than or equal to 7)”; and `CCOC(=O)C=Cc1ccccc1` [Material 400], with “K (Log of liquid dish neat product liquid-air partition coefficient greater than or equal to 7)”.

For the compound `CC(=O)O[C@]1(C)CC[C@@]23C[C@@H]1C(C)(C)[C@@H]2CC[C@H]3C` [Material 567], the “Comment Code: Log” value is recorded as “K (Log of liquid dish neat product liquid-air partition coefficient greater than or equal to 7)”.

`CC1(C)C2CCC3(C2)C1C1(CCC3(C)C)OCCO1` (stereo not drawn) [Material 1144]: the “Comment Code: Log” value was “K (Log of liquid dish neat product liquid-air partition coefficient greater than or equal to 7)”. Regarding `N#C/C=C/c1ccccc1` [Material 556], the “Comment Code: Log” value is “K (Log of liquid dish neat product liquid-air partition coefficient greater than or equal to 7)”. As to `O=C1CCCC=CCCCCCCCCCC1` [Material 788], the “Comment Code: Log” value is listed as “K (Log of liquid dish neat product liquid-air partition coefficient greater than or equal to 7)”.

Take `CC(=O)OC(C)CC(C)(C)c1ccccc1` (stereo not drawn) [Material 1134]: the “Comment Code: Log” value is “K (Log of liquid dish neat product liquid-air partition coefficient greater than or equal to 7)”. The same measure, in the same setting: to `CC1COCc2cc3c(cc21)C(C)(C)C(C)C3(C)C` (stereo not drawn) [Material 335] belongs “K (Log of liquid dish neat product liquid-air partition coefficient greater than or equal to 7)”; to `CC1(CO)CC1CC1CC2CC2(C)C1(C)C` (stereo not drawn) [Material 185], “K (Log of liquid dish neat product liquid-air partition coefficient greater than or equal to 7)”.

Still in this data set, the particulars now being: Comment Code letters K and/or L.
For the compound `C[C@@H]1CC[C@H]2[C@@H]1[C@H]1[C@@H](CC[C@]2(C)O)C1(C)C` [Material 1140], the “Log of liquid dish neat product liquid-air partition coefficient (Comment Code K/L)” value (from here on “Log … (Comment Code K/L)”) is reported as “K (Log of liquid dish neat product liquid-air partition coefficient greater than or equal to 7)”.

Consider `CC1(C)C2CCC3(C2)C1C1(CCC3(C)C)OCCO1` (stereo not drawn) [Material 1144], for which the “Log … (Comment Code K/L)” value was “K (Log of liquid dish neat product liquid-air partition coefficient greater than or equal to 7)”.

The data set is the same for the next values; noted with them: code letter within the Comment Code cell.
Take `CC(C)C1CCC(C(C)O)CC1` (stereo not drawn) [Material 83]: the “Log … (Comment Code K/L)” value was “K (Log of liquid dish neat product liquid-air partition coefficient greater than or equal to 7)”. On the same count and under the same terms, to `C=CC1(C)CCC(C(C)C)=CC1C(=C)C` (stereo not drawn) [Material 461] belongs “K (Log of liquid dish neat product liquid-air partition coefficient greater than or equal to 7)”; to `CC1CC=CCCCCCCCC(=O)OCC1` (stereo not drawn) [Material 52], “K (Log of liquid dish neat product liquid-air partition coefficient greater than or equal to 7)”. Regarding `CCCCCCCCCCCC(=O)OCCC(C)C` [Material 238], the “Log … (Comment Code K/L)” value is “K (Log of liquid dish neat product liquid-air partition coefficient greater than or equal to 7)”.

With `CC/C=C\C/C=C\CCO` [Material 546], the “Log … (Comment Code K/L)” value is listed as “K (Log of liquid dish neat product liquid-air partition coefficient greater than or equal to 7)”. On to `CC1COCc2cc3c(cc21)C(C)(C)C(C)C3(C)C` (stereo not drawn) [Material 335], for which the “Log … (Comment Code K/L)” value is given as “K (Log of liquid dish neat product liquid-air partition coefficient greater than or equal to 7)”. As to `CC1(CO)CC1CC1CC2CC2(C)C1(C)C` (stereo not drawn) [Material 185], the “Log … (Comment Code K/L)” value is given as “K (Log of liquid dish neat product liquid-air partition coefficient greater than or equal to 7)”.

In the case of `CC(C)CC1CC(C)(O)CCO1` (stereo not drawn) [Material 350], the “Log … (Comment Code K/L)” value was “K (Log of liquid dish neat product liquid-air partition coefficient greater than or equal to 7)”.

Still in this data set, the particulars now being: code letters K/L of the Comment Code.
Take `CC(C)CCCC(C)CCCC(C)C=O` (stereo not drawn) [Material 741]: the “Log of liquid dish neat product liquid-air partition coefficient (Comment Code)” value (shortened to “Log … (Comment Code)”) is “K (Log of liquid dish neat product liquid-air partition coefficient greater than or equal to 7)”. Turning to `CC(=O)c1cc(C(C)(C)C)cc2c1CCC2(C)C` [Material 563], the “Log … (Comment Code)” value was “K (Log of liquid dish neat product liquid-air partition coefficient greater than or equal to 7)”. Same read-out and setting: then `CC(=CCC1CC=C(C)C1(C)C)CO` (stereo not drawn) [Material 908], with “K (Log of liquid dish neat product liquid-air partition coefficient greater than or equal to 7)”; and `CC(C)=CCCC(C)=C1CC=C(C)CC1` [Material 608], with “K (Log of liquid dish neat product liquid-air partition coefficient greater than or equal to 7)”. As to `CC1=CCCC2(C)OC2CCC(C)=CCC1` (stereo not drawn) [Material 568], the “Log … (Comment Code)” value was “K (Log of liquid dish neat product liquid-air partition coefficient greater than or equal to 7)”.

Turning to `C=CCOC(=O)COCCC(C)C` [Material 748], the “Log … (Comment Code)” value is “K (Log of liquid dish neat product liquid-air partition coefficient greater than or equal to 7)”. For `CC1=CC2C(C(C)C)CCC(C)(O)C2CC1` (stereo not drawn) [Material 1047], the “Log … (Comment Code)” value is “K (Log of liquid dish neat product liquid-air partition coefficient greater than or equal to 7)”. `CC(=O)O[C@]1(C)CC[C@@]23C[C@@H]1C(C)(C)[C@@H]2CC[C@H]3C` [Material 567]: the “Log … (Comment Code)” value is “K (Log of liquid dish neat product liquid-air partition coefficient greater than or equal to 7)”. As for `CC1=CC2C(C(C)C)CCC(C)(O)C2CC1` (stereo not drawn) [Material 716], the “Log … (Comment Code)” value was “K (Log of liquid dish neat product liquid-air partition coefficient greater than or equal to 7)”. Turning to `O=C1CCCC=CCCCCCCCCCC1` [Material 788], the “Log … (Comment Code)” value is “K (Log of liquid dish neat product liquid-air partition coefficient greater than or equal to 7)”. Turning to `CC1=CCC(CCC(C)CO)C1(C)C` (stereo not drawn) [Material 600], the “Log … (Comment Code)” value is recorded as “K (Log of liquid dish neat product liquid-air partition coefficient greater than or equal to 7)”.
